PubChem BioAssay AID328 (DTP/NCI, 2004)
Values joined by “and” are separate entries in the source; they are usually repeats but may differ in a detail not shown here. Identical values can stand only once. Toxic doses and inconclusive results are not listed. How the source made its calls: active means survival T/C of 150% or more; inactive means T/C below 125% in these data.

Test system: BDF1 mice, P388 leukemia ip, median survival T/C
Test: NCI In Vivo Anticancer Drug Screen. Data for tumor model P388 Leukemia (intraperitoneal) in B6D2F1 (BDF1) mice
Details: endpoint: median survival time, higher = longer survival
Summary of the method: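 Steps: implant the tumour, treat one group with compound and another with vehicle, record survival, then divide treated by control.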

[1] = dose: 100.0 mg/kg/injection, schedule: Q04DX003 (ip), vehicle: saline with Tween-80
[2] = dose: 200.0 mg/kg/injection, schedule: Q04DX003 (ip), vehicle: saline with Tween-80
[3] = dose: 50.0 mg/kg/injection, schedule: Q01DX009 (ip), vehicle: saline with Tween-80
[4] = dose: 100.0 mg/kg/injection, schedule: Q01DX009 (ip), vehicle: saline with Tween-80
[5] = dose: 200.0 mg/kg/injection, schedule: Q01DX009 (ip), vehicle: saline with Tween-80
[6] = dose: 400.0 mg/kg/injection, schedule: Q01DX009 (ip), vehicle: saline with Tween-80
[7] = dose: 400.0 mg/kg/injection, schedule: Q04DX003 (ip), vehicle: saline with Tween-80

Measured: T/C

Cc1ccc(N=Nc2nc3nc(N)[nH]c(=O)c3[nH]2)cc1
inactive: dose: 50.0 mg/kg/injection, schedule: Q01DX005 (ip), vehicle: saline with Tween-80 100 % of control | dose: 100.0 mg/kg/injection, schedule: Q01DX005 (ip), vehicle: saline with Tween-80 105 % of control | dose: 200.0 mg/kg/injection, schedule: Q01DX005 (ip), vehicle: saline with Tween-80 87 % of control

CC(C(O)c1cccs1)C(O)(C(F)(F)F)C(F)(F)F (stereo not given)
inactive: [1] 90 % of control | [2] 109 % of control

CCN(C(=S)Nc1cccc(OC)c1)c1ccccc1
inactive: [3] 101 % of control | [4] 99 % of control | [5] 101 % of control

O=C(/C=C/C=C/c1ccccc1)c1ccc(Cl)cc1
inactive: [4] 115 % of control | [1] 100 % of control | [5] 115 % of control | [2] 90 % of control | [6] 110 % of control | [7] 109 % of control

N#CN(Cc1ccc(Cl)cc1Cl)C(=O)OCOc1ccc(Cl)cc1
inactive: [1] 100 % of control | [2] 90 % of control | [7] 109 % of control

CCOC(=O)CNCc1cccc(Br)c1
inactive: dose: 50.0 mg/kg/injection, schedule: Q01DX005 (ip), vehicle: saline 104 % of control | dose: 100.0 mg/kg/injection, schedule: Q01DX005 (ip), vehicle: saline 106 % of control | dose: 200.0 mg/kg/injection, schedule: Q01DX005 (ip), vehicle: saline 98 % of control | dose: 400.0 mg/kg/injection, schedule: Q01DX005 (ip), vehicle: saline 104 % of control

COCC(O)CC#N (stereo not given)
inactive: dose: 100.0 mg/kg/injection, schedule: Q01DX009 (ip), vehicle: saline 100 % of control | dose: 100.0 mg/kg/injection, schedule: Q04DX003 (ip), vehicle: saline 95 % of control | dose: 200.0 mg/kg/injection, schedule: Q01DX009 (ip), vehicle: saline 87 % of control | dose: 200.0 mg/kg/injection, schedule: Q04DX003 (ip), vehicle: saline 95 % of control | dose: 400.0 mg/kg/injection, schedule: Q01DX009 (ip), vehicle: saline 95 % of control | dose: 400.0 mg/kg/injection, schedule: Q04DX003 (ip), vehicle: saline 100 % of control

O=C(NC(CO)C(O)c1ccc([N+](=O)[O-])cc1)C(Cl)Cl (stereo not given)
inactive: [1] 104 % of control | [2] 100 % of control | [7] 109 % of control

CC(C)C(=O)c1ccc([N+](=O)[O-])o1
inactive: [3] 115 % of control | [4] 111 % of control | [1] 107 % of control | [5] 109 % of control | [2] 116 % of control | [6] 107 % of control | [7] 109 % of control

CCCCOCN(COCCCC)c1ccccc1Cl
inactive: [3] 116 % of control | [4] 107 % of control and 121 % of control

O=c1c2ccccc2[nH]c2ccccc12
inactive: dose: 50.0 mg/kg/injection, schedule: Q04DX003 (ip), vehicle: saline with Tween-80 105 % of control | [1] 99 % of control | [2] 99 % of control | [7] 96 % of control

O=[N+]([O-])c1cccc(OCCOc2ccc(S(=O)(=O)F)cc2)c1
inactive: [1] 100 % of control | [7] 100 % of control
